Where two headings read alike, the source gives them in different places.
How the values were obtained:
[1] = test system: 3D co-culture spheroids of MDA-MB-231 and primary murine CAFs; assay: 3D growth studies, spheroid size of co-culture spheroids; type: cell-based, human MDA-MB-231; settings: 100 nM, 72 h
Protocol: To emulate the TNBC microenvironment, 3D spheroids composed of MDA-MB-231 and CAFs at a ratio of 1:2 in a collagen-based matrix were generated. The culture medium of both cell lines was mixed (DMEM:RPMI 1640 (1:1) + 12.5% FCS + 1% PS) and supplemented with 0.05 mg/mL collagen type I (Thermo Fisher Scientific; #A1048301). On day 1, 3000 cells were seeded into a low-attachment 96 well plate (Greiner; #650970). Spheroids were grown for 72 h before proceeding with compound treatment on day 4, and analysis on day 7 according to the “Spheroid immunostaining”, “3D cell viability”, or “3D growth” studies presented in the results section.
Co-culture spheroids were generated for 72 h before they were exposed to either DMSO (Roth; #A994.1) alone at maximal 0.1%, 100 nM paclitaxel (Santa Cruz Biotechnology; #sc-201439), or 100 nM of compound (1) for another 72 h. At least three spheroids per treatment group were analyzed. For that purpose, brightfield images of the spheroids were acquired at 100× g magnification using the microscope Axio Vert.A1 (Zeiss). The spheroid surface area was quantified in brightfield images using Fiji (open-source software; version 1.52i) and was further defined as spheroid size. In each individual experiment spheroid size was normalized to the smallest (which was set to 0%) and to the largest spheroids (which was set to 100%).

HIF = test system: HIF; set-up: method as in earlier work; settings: luminal breast cancer cell line T47D; ref 62 (Chen et al.); cited from earlier work
NFκB = NFκB inhibition assay (24 h), NFκB-dependent firefly luciferase reporter; type: cell-based; settings: Homo sapiens, 24 h, read-out: NFκB Inhibition 24 h IC50
Protocol: On day 1, 3 × 10^4 NFκB MDA-MB-231-firefly cells were seeded into white 96 well plates (Greiner; #655098). On day 2, the medium was replaced with starvation medium and the cells were pre-incubated for 20 min with either 100 µL of DMSO (Roth; #A994.1) alone at maximal 0.1%, or with the final concentration of the diluted compounds (Table 3). To activate NFκB signaling, cells were stimulated with 20 ng/mL TNFα (Peprotech, Hamburg, Germany; #300-01A). Cell lysis was performed in 20 µL 1× cell lysis buffer according to the manufacturer’s instruction for the Luciferase Assay System (Promega #E1500). NFκB-dependent luminescence was determined as relative light units (RLU) using the microplate reader Spark® (Tecan).

IκBα = assay: Western blot of IκBα after TNFα stimulation; type: cell-based; settings: MDA-MB-468-UnaG
Protocol: We investigated NFκB-blocking by determining the protein expression of its cytoplasmic inhibitor IκBα in MDA-MB-468-UnaG cells. On day 1, the cells were seeded into a 6 well plate (Greiner; #657160). On day 2, the cells were either left untreated (normoxia) or exposed to 100 µM CoCl2 (hypoxia) (Sigma-Aldrich; #C8661). On day 3, the medium was replaced, and cells were either exposed to DMSO (Roth; #A994.1) alone at maximal 0.1% or to compound (1s) at the concentrations 2 nM, 5 nM, 10 nM, 20 nM, or 50 nM for 1 h. An amount of 10 ng/mL TNFα was applied as a positive control. […] An amount of 20 µg of the total protein was separated on a ready-to-use 12% SDS-gel (Bio-Rad, Düsseldorf, Germany; #456-1044). […] For protein detection via chemiluminescence, the membrane was incubated in HRP-substrate (Thermo Fisher Scientific; #34577) for 5 min and the signal was recorded using the Fusion Pulse TS microscope (VILBER, Eberhardzell; Germany). Signal quantification was performed using the software EvolutionCapt (VILBER). […]
Figure 8 Compound (1s) stabilizes IκBα under normoxic and under hypoxic conditions. […] Statistical difference vs. TNFα was calculated with two-way ANOVA (* p < 0.05, ** p < 0.01, *** p < 0.001). […]

MDA-MB-468-UnaG = assay: 2D cell viability in MDA-MB-468-UnaG under normoxia or CoCl2-simulated hypoxia

Row | SMILES | reduction of spheroid growth compared to untreated spheroids [1] [%] | HIF induction under low oxygen level (HIF) | IC50 (NFκB) [nM] | TNFα-mediated IκBα degradation (IκBα; CoCl2-simulated hypoxia, 20 nM) | IκBα protein level after TNFα (IκBα; normoxia, 20 nM pre-incubation 1 h, TNFα 10 ng/mL 30 min) | IC50 (MDA-MB-468-UnaG; 24 h, read-out: cell viability IC50, hypoxia) [nM] | decrease of cytotoxic effects by hypoxia (factor) (MDA-MB-468-UnaG; hypoxia vs normoxia, MDA-MB-468-UnaG) | IC50 (MDA-MB-468-UnaG; read-out: cell viability IC50, normoxia) [nM]
1 | COc1ccc2c3c(c4cc(OC)c(OC)cc4c2c1)CN1CCCC1C3O (centres unmarked) [Compound (1), O-methyltylophorinidine] | 40 | blockade of HIF induction | 3.7 ± 1 |  |  |  |  | 
2 | COc1ccc2c3c(c4cc(OC)c(OC)cc4c2c1)CN1CCCC1C3O (centres unmarked) [Compound (1s), O-methyltylophorinidine] |  |  |  | suppressed | stabilized IκBα | 6.5 | barely affected | 6.7
